{
  "source": "patent US9663429B2",
  "about": "“Vitamin D analogues of pharmaceutical interest” (UNIVERSIDADE DE SANTIAGO DE COMPOSTELA, priority 2013, dated 2017)",
  "key": {"SKOV-3 cells": {"tested_on": "SKOV-3 cells", "assay": "MTT proliferation assay, SKOV-3", "conditions": "10^−7 M, 48 hours, 100% control cells", "quoted_text": "Proliferation assay in the SKOV-3 cell line of human ovary adenocarcinoma. […] The values were plotted in the graphs as mean±SD. As proliferation value, 100% was considered the normal growth of SKOV-3 cells treated with the carrier in the control.\n(§3) The cells were cultured in 90-mm plates in essential culture medium DMEM, supplemented with 10% bovine foetal serum free of steroid hormones, 100 U/ml penicillin, 100 μg/ml streptomycin and 2 mM non-essential amino acids (L-glutamine) at 37° C. in a humid atmosphere O2/CO2 (95/5%).\n(§4) The first is an indirect method for determining living cells, wherein the yellow water soluble MTT is reduced in mitochondria, thus generating a purple insoluble product (formazan). […] After this time, the culture medium was removed and 500 μl of dimethylsulfoxide (DMSO) was added to each well to solubilise the formazan incorporated by the cells."}, "[1]": {"tested_on": "24-hydroxylase promoter, CYP24A1 (pCYP24A1-Luc)", "assay": "Transactivation reporter assay (pCYP24A1-Luc) in MCF-7 cells", "quoted_text": "MCF-7 cells were transfected with the reporter vector of 24-hydroxylase (pCYP24A1-Luc vector) for 24 hours. […] The experiments were performed at least twice. The error bars represent the standard deviation (SD)."}, "MCF-7 cells [2]": {"tested_on": "MCF-7 cells", "assay": "3D cell culture on matrigel (spheroid size), MCF-7", "type": "cell-based, human", "description": "FIG. 7. MCF-7 cells were shown for 10 days on a matrigel bed until they formed a 3D cellular structure. […] After treatment, the spheroids were stained with DAPI (4′,6-diamino-2-phenylindole) for 1 hour and photographed under an inverted microscope with ultraviolet light. The size of these spheroids was measured and the values were represented as mean±SD in relative units. […] Those cells treated with the carrier were considered as the control value.\nFor 3D cell culture, a cushion of 200 μl of Matrigel (BD Biosciences) was used in each of the wells of multi-well plates of 24 wells. They were incubated at 37° C. for 20 minutes for their solidification and subsequently the cell suspension (5×10^3 cells per 100 μl volume of medium) was loaded onto the matrigel solidified and another incubation at 37° C. was performed for 30 minutes so that the cells penetrated properly on the matrigel base. 500 μl of DMEM medium were added to each well, and the cells were maintained in culture for 10 days. At the end of this time, the cells were started to be treated with each of the 5 analogues used and 1,25D."}, "MCF-7-Luc cells": {"tested_on": "MCF-7-Luc cells", "assay": "In vivo anti-tumour activity, MCF-7-Luc tumours in SCID mice", "conditions": "5 μ/kg ip every 2 days for 28 days, p≦0.05", "description": "FIG. 12. In this figure the results obtained by treating a group of 32 mice with the analogue PG136 after being injected with MCF-7-Luc cells are shown.\n(§1) In order to study the anti-tumour activity of the analogue PG136 in vivo, 32 immunosuppressed CB17-Prkdc^scid 8 weeks old female mice were used, called SCID (PRBB, Barcelona, Spain). These mice were injected subcutaneously with 5×10^6 breast tumour cells MCF-7 and MDA-MB-231 stably transfected with plasmid pcDNA3-Luciferase coding for the gene of the luciferase (called MCF-7-Luc and MDA-MB-231-Luc). Two groups of 8 mice were injected with cells MCF-7-Luc and other 2 groups of 8 mice with MDA-MB-231-Luc cells. Fifteen days after injection, the mice were started to be treated intraperitoneally every 2 days for 28 days with the analogue PG136 at a dose of 5 μ/kg dissolved in sesame oil used as carrier. The control group is treated in the same way and with the same range with sesame oil. Tumour size is determined every seven days once started the treatment using an in vivo imaging system (IVIS, Caliper Life Sciences, Alameda, USA), and the tumour size is calculated using a map of intensities retrieved using the Living Image (Caliper Life Sciences) software. In the case of the 2 groups of mice injected with MDA-MB-231-Luc cells, the experiment continued until day 60 and Kaplan-Meier Survival estimates were made."}, "vitamin D receptor (VDR)": {"biological_target": "T1, vitamin D receptor (VDR) (Homo sapiens, UniProt P11473)", "T1 construct": "purchased Invitrogen", "T1 sequence (P11473 1-427)": "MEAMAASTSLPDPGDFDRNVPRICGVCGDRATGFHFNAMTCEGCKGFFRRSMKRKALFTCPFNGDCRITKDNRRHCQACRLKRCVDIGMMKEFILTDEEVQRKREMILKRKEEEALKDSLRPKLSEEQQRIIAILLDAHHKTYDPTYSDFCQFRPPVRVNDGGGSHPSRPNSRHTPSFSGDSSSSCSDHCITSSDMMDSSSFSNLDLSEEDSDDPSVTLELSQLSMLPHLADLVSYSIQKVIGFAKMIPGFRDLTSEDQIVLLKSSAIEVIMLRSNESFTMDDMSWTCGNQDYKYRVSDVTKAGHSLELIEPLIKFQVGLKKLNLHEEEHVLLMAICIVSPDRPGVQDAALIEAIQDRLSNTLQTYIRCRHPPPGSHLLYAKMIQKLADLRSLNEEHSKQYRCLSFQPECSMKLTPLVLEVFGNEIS", "assay": "Competitive binding to vitamin D receptor (Polarscreen VDR competitor assay, fluorescence polarisation)", "description": "FIG. 1. […] The values represent the mean of at least two experiments.\nPolarised fluorescence was determined in 384-well black plates for 200 ms/well using a Mithras LB 940 device (Berthold Technologies)."}, "[3]": {"assay": "Dose-response assay of serum calcium in mice", "type": "in vivo", "conditions": "for Serum calcium versus controls, analogues: doses 0.1, 0.5, 1 and 5 μg/kg ip every 2 days for 21 days", "description": "FIG. 9. […] 1,25D (dose of 0.3 μg/kg) and analogues (doses of 0.1, 0.5, 1 and 5 μg/kg) were injected intraperitoneally every 2 days for 21 days. After treatment the calcium levels in the serum were evaluated and the values were represented as mean±SD in […].\n(§2) Calcium mobilization of analogues was determined in 28 male CD-1 mice (6-8 weeks old). 6 Groups of 4 mice each were established, which mice were intraperitoneally (ip) injected with 0.3 μg/kg weight of each analogue or 1,25D dissolved in sesame oil every two days for 3 weeks. A seventh group of 4 mice treated with the carrier (sesame oil) served as controls. Calcium levels in blood were determined by QuantiChomCalciumAssay Kit (BioAssaySystems, Hayward, Calif., USA). In addition, a dose-response assay was performed to assess the effect of administration of the analogues PG-403 and PG136p and hormone (1,25D) at different doses on calcium levels. This assay was performed in male mice (5 mice per group), and the doses used were: 0.1, 0.5, 1, and 5 μg/kg weight of each analogue or 1,25D, i.p. administered every two days for 21 days. In addition, a control group (mice treated with sesame oil) was used."}, "[4]": {"assay": "Calcaemic effects in mice at 0.3 μg/kg", "type": "in vivo", "description": "FIG. 8. […] 1,25D and the various analogues were injected intraperitoneally every 2 days for 21 days at a dose of 0.3 μg/Kg. After treatment the calcium levels in the serum were evaluated and the values were represented as mean±SD in […].\nas §2"}, "MCF-7 cells [5]": {"tested_on": "MCF-7 cells", "assay": "MTT proliferation assay, MCF-7", "conditions": "10^−7 M, 48 hours, 100% control cells", "quoted_text": "Proliferation assay in the MCF-7 cell line of human breast adenocarcinoma. […] The values were plotted in the graphs as mean±SD. As proliferation value, 100% was considered the normal growth of MCF-7 cells treated with the carrier in the control.\nas §3\nCell proliferation/toxicity in breast cancer lines was assessed by both incorporation assays of 3-(4,5-dimethylthiazol-2-yl)-2,5-difeniltetrazolium (MTT) bromide and cell culture in three dimensions (3D).\nas §4"}, "[6]": {"assay": "Body weight of mice in the dose-response assay", "type": "in vivo", "conditions": "mice, 0.1, 0.5, 1 and 5 μg/kg ip every 2 days for 21 days", "description": "FIG. 10. […] 1,25D (dose of 0.3 μg/kg) and analogues (doses of 0.1, 0.5, 1 and 5 μg/kg) were injected intraperitoneally every 2 days for 21 days. Animals were weighed every two days during treatment. The values were represented as mean±SD in […].\nIn this experiment, also the weight of the animals was quantified to determine whether there was any modification throughout the treatment."}, "PC-3 cells": {"tested_on": "PC-3 cells", "assay": "MTT proliferation assay, PC-3", "conditions": "10^−7 M, 48 hours, 100% control cells", "quoted_text": "Proliferation assay in the PC-3 cell line of human prostate adenocarcinoma. […] The values were plotted in the graphs as mean±SD. As proliferation value, 100% was considered the normal growth of PC-3 cells treated with the carrier in the control.\nas §3, §4"}, "HaCaT cells": {"tested_on": "HaCaT cells", "assay": "MTT proliferation assay, HaCaT", "conditions": "10^−7 M, 48 hours, 100% control cells", "quoted_text": "Proliferation assay in the HaCaT cell line of human keratinocytes. […] The values were plotted in the graphs as mean±SD. As proliferation value, 100% was considered the normal growth of HaCaT cells treated with the carrier in the control.\nas §3, §4"}, "MDA-MB-231-Luc cells": {"tested_on": "MDA-MB-231-Luc cells", "assay": "In vivo anti-tumour activity, MDA-MB-231-Luc tumours in SCID mice", "from_the_text": "FIG. 13. In this figure the results obtained by treating a group of 32 mice with the analogue PG136 after being injected with MDA-MB-231-Luc cells are shown.\nFIG. 14. The survival rate of mice treated with the analogue PG136 after being injected with MDA-MB-231-Luc cells is shown and compared with control mice.\nas §1, with “In the case of the 2 groups of mice injected with MDA-MB-231-Luc cells, the experiment continued until day 60 and Kaplan-Meier Survival estimates were made.” left out"}},
  "data": [
    {"smiles": "C=C1/C(=C\\C=C(/CC)c2cccc(CCCCCC(C)(C)O)c2)C[C@@H](O)C[C@@H]1O", "note": "[PG-136p, (1R,3S,Z)-5-((E)-3-(3-(6-hydroxy-6-methylheptyl)phenyl)pent-2-enyliden)-4-methylenecyclohexane-1,3-diol]", "values": [
      {"measurement": "Cell proliferation percentage SKOV-3 2D", "setting": "SKOV-3 cells", "result": 78, "unit": "%"},
      {"measurement": "EC50", "setting": "[1]; Homo sapiens, MCF7, 24 h, read-out: Transcriptional activity EC50", "result": 5.97, "unit": "nM"},
      {"measurement": "Transcriptional activity % relative to 1,25D (100%)", "setting": "[1]; MCF-7 cells, pCYP24A1-Luc", "result": 33, "unit": "%"},
      {"measurement": "Three-dimensional growth of MCF-7 spheroids (in words)", "setting": "MCF-7 cells [2]; 10^−7 M for 7 days", "result": "inhibit the three-dimensional growth, similarly to 1,25D"},
      {"measurement": "Cell proliferation percentage MCF-7 3D", "setting": "MCF-7 cells [2]; 10^−7 M, matrigel spheroids, 100% control cells", "result": 69, "unit": "%"},
      {"measurement": "Tumour volume versus control group", "setting": "MCF-7-Luc cells", "result": "smaller volume"},
      {"measurement": "Binding to VDR % relative to 1,25D (100%)", "setting": "vitamin D receptor (VDR); activity relative to natural hormone 1,25D normalised at 100%", "result": 24, "unit": "%"},
      {"measurement": "IC50", "setting": "vitamin D receptor (VDR); competitive displacement, 10^−11 to 10^−5 M", "result": 7.11, "unit": "nM"},
      {"measurement": "Serum calcium versus control animals (placebo)", "setting": "[3]; 5 μg/kg weight ip every two days for 21 days", "result": "did not significantly raise serum calcium"},
      {"measurement": "Serum calcium versus controls, analogues", "setting": "[3]", "result": "does not produce hypercalcemia"},
      {"measurement": "Serum calcium versus controls, analogues", "setting": "[3]; listed as PG136p", "result": "None of the two analogues tested (PG136p and PG-403) induces increased serum calcium"},
      {"measurement": "Hypercalcemia (serum calcium versus control)", "setting": "[4]; 0.3 μg/Kg ip every 2 days for 21 days", "result": "does not produce hypercalcemia"},
      {"measurement": "Calcaemic activity: blood calcium in percentage over that induced by 1,25D", "setting": "[4]; ip every two days for 21 days, 0.3 μg/kg (table title prints 0.3 mg/kg)", "result": 0, "unit": "%"},
      {"measurement": "Cell proliferation percentage MCF-7 2D", "setting": "MCF-7 cells [5]", "result": 65, "unit": "%"},
      {"measurement": "Body weight versus control animals, analogues", "setting": "[6]", "result": "does not change the body weight"},
      {"measurement": "Body weight versus control animals, analogues", "setting": "[6]; listed as PG136p", "result": "did not significantly affect the body weight"},
      {"measurement": "Cell proliferation percentage PC-3 2D", "setting": "PC-3 cells", "result": 78, "unit": "%"},
      {"measurement": "Cell proliferation percentage HaCaT 2D", "setting": "HaCaT cells", "result": 68, "unit": "%"},
      {"measurement": "Tumour volume versus control group", "setting": "MDA-MB-231-Luc cells; 5 μ/kg ip every 2 days for 28 days, p≦0.0001", "result": "smaller volume"},
      {"measurement": "Survival rate versus control mice (Kaplan-Meier)", "setting": "MDA-MB-231-Luc cells; until day 60, p=0.042", "result": "higher survival rate"}
    ]}
  ]
}
